Experimental data: ChEMBL document CHEMBL5550106, “Recent advances in the exploration of oxazolidinone scaffolds from compound development to antibacterial agents and other bioactivities” (Eur J Med Chem, 2024)
In brackets after ≈: the same amount, converted by molar mass.

Key:
Coagulation factor X = Coagulation factor X (Homo sapiens, UniProt P00742); assay: Inhibition of human factor Xa
Escherichia coli [1] = assay: Antimicrobial activity against wild type Escherichia coli MG1655 assessed as inhibition of microbial growth; format: functional
Escherichia coli [2] = assay: Antibacterial activity against Escherichia coli MG1655 in presence of polymyxin B nonapeptide; format: functional
Escherichia coli [3] = assay: Antibacterial activity against efflux pump-efficient Escherichia coli MG1655 assessed as bacterial growth inhibition; format: functional
Staphylococcus aureus [4] = assay: Antibacterial activity against Staphylococcus aureus assessed as reduction in bacterial growth incubated for 24 hrs by broth microdilution method; format: functional
Staphylococcus aureus [5] = assay: Antibacterial activity against Staphylococcus aureus assessed as reduction in microbial growth by CLSI based broth microdilution method; format: functional
Staphylococcus aureus [6] = assay: Antibacterial activity against methicillin-resistant Staphylococcus aureus assessed as reduction in microbial growth by CLSI based broth microdilution method; format: functional
Staphylococcus aureus [7] = assay: Antibacterial activity against Linezolid-resistant Staphylococcus aureus assessed as reduction in bacterial growth; format: functional
[8] = tested on: Staphylococcus epidermidis; assay: Antibacterial activity against Staphylococcus epidermidis assessed as reduction in microbial growth after 24 hrs by CLSI based microdilution method; format: functional
[9] = tested on: Staphylococcus epidermidis; assay: Antibacterial activity against Methicillin-resistant Staphylococcus epidermidis assessed as bacterial growth inhibition; format: functional
[10] = tested on: Staphylococcus epidermidis; assay: Antibacterial activity against linezolid-resistant Staphylococcus epidermidis assessed as reduction in bacterial growth; format: functional

Sequence of Coagulation factor X (P00742 41-179 limits assumed): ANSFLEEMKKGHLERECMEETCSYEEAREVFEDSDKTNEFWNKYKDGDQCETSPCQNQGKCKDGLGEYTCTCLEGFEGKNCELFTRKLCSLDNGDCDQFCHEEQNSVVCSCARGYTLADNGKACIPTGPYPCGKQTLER
Sequence of Coagulation factor X (P00742 235-488 limits assumed): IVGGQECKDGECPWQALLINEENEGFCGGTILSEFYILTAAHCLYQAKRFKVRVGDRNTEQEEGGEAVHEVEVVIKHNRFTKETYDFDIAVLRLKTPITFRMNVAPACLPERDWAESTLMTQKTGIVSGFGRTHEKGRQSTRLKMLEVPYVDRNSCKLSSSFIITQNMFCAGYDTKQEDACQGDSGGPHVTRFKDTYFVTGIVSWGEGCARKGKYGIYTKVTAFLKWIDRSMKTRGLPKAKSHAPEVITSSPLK

Compound	IC50 (Coagulation factor X)	MIC (Escherichia coli [1])	MIC (Escherichia coli [2])	MIC (Escherichia coli [3])	MIC (Staphylococcus aureus [4])	MIC (Staphylococcus aureus [5])	MIC (Staphylococcus aureus [6])	MIC (Staphylococcus aureus [7])	MIC [8]	MIC [9]	MIC [10]
O=C(NC[C@@H]1OC(=O)N2c3ccc(N4CCOCC4=O)cc3OC[C@@H]12)c1ccc(Cl)s1	0.003 µM	–	–	–	–	–	–	–	–	–	–
O=C(NC[C@@H]1OC(=O)N2c3ccc(N4CCOCC4=O)cc3OC[C@H]12)c1ccc(Cl)s1	0.05 µM	–	–	–	–	–	–	–	–	–	–
CC(=O)N(C)c1ccc2c(c1)OC[C@H]1[C@H](CNC(=O)c3ccc(Cl)s3)OC(=O)N21	2.21 µM	–	–	–	–	–	–	–	–	–	–
O=C(NC[C@@H]1OC(=O)N2c3ccc(N4CCOC4=O)cc3OC[C@@H]12)c1ccc(Cl)s1	15.7 µM	–	–	–	–	–	–	–	–	–	–
NCc1ncc(-c2ccc(N3C[C@H](CO)OC3=O)cc2F)cc1O	–	51 µg/mL	32 µg/mL	32 µg/mL (≈ 96 µM)	20 µg/mL (≈ 60 µM)	–	–	–	–	–	–
NCc1cc(F)c(-c2ccc(N3C[C@H](CO)OC3=O)cc2F)cc1O	–	64 µg/mL	32 µg/mL	64 µg/mL (≈ 183 µM)	32 µg/mL (≈ 91.3 µM)	–	–	–	–	–	–
NCc1ccc(-c2ccc(N3C[C@H](CO)OC3=O)cc2F)cc1O	–	84 µg/mL	32 µg/mL	8 µg/mL (≈ 24.1 µM)	2.8 µg/mL (≈ 8.43 µM)	–	–	–	–	–	–
COC(=O)C1(C(=O)OC)Cc2cc(-c3ccc(N4C[C@H](CO)OC4=O)cc3F)ccc2N2CCOCC21 (stereo partly drawn)	–	–	–	–	–	16 µg/mL	8 µg/mL	> 32 µg/mL	8 µg/mL	8 µg/mL (≈ 15.5 µM)	> 32 µg/mL
CC(=O)NC[C@H]1CN(c2ccc(-c3ccc4c(c3)CC3(C(=O)NC(=O)NC3=O)C3CCCCN43)c(F)c2)C(=O)O1 (stereo partly drawn)	–	–	–	–	–	2 µg/mL	< 1 µg/mL	16 µg/mL (≈ 29.1 µM)	2 µg/mL	< 1 µg/mL	> 32 µg/mL
COC(=O)NC[C@H]1CN(c2ccc(-c3ccc4c(c3)CC3(C(=O)NC(=O)NC3=O)C3CCCN43)c(F)c2)C(=O)O1 (stereo partly drawn)	–	–	–	–	–	2 µg/mL	2 µg/mL	32 µg/mL (≈ 58 µM)	2 µg/mL	2 µg/mL (≈ 3.63 µM)	32 µg/mL (≈ 58 µM)
O=C1NC(=O)C2(Cc3cc(-c4ccc(N5C[C@H](CO)OC5=O)cc4F)ccc3N3CCOCC32)C(=O)N1 (stereo partly drawn)	–	–	–	–	–	8 µg/mL	4 µg/mL	32 µg/mL (≈ 62.7 µM)	4 µg/mL	2 µg/mL (≈ 3.92 µM)	32 µg/mL (≈ 62.7 µM)
COC(=O)NC[C@H]1CN(c2ccc(-c3ccc4c(c3)CC3(C(=O)NC(=O)NC3=O)C3COCCN43)c(F)c2)C(=O)O1 (stereo partly drawn)	–	–	–	–	–	4 µg/mL	4 µg/mL	> 32 µg/mL	4 µg/mL	2 µg/mL (≈ 3.52 µM)	32 µg/mL (≈ 56.4 µM)
O=C1NC(=O)C2(Cc3cc(-c4ccc(N5C[C@H](CO)OC5=O)cc4F)ccc3N3CCCCC32)C(=O)N1 (stereo partly drawn)	–	–	–	–	–	4 µg/mL	2 µg/mL	16 µg/mL (≈ 31.5 µM)	2 µg/mL	< 1 µg/mL	32 µg/mL (≈ 62.9 µM)
COC(=O)C1(C(=O)OC)Cc2cc(-c3ccc(N4C[C@H](CNC(C)=O)OC4=O)cc3F)ccc2N2CCOCC21 (stereo partly drawn)	–	–	–	–	–	8 µg/mL	4 µg/mL	> 32 µg/mL	4 µg/mL	4 µg/mL (≈ 7.2 µM)	32 µg/mL (≈ 57.6 µM)
CC(=O)NC[C@H]1CN(c2ccc(-c3ccc4c(c3)CC3(C(=O)NC(=O)NC3=O)C3CCCN43)c(F)c2)C(=O)O1 (stereo partly drawn)	–	–	–	–	–	2 µg/mL	2 µg/mL	16 µg/mL (≈ 29.9 µM)	2 µg/mL	< 1 µg/mL	32 µg/mL (≈ 59.8 µM)
CC(=O)NC[C@H]1CN(c2ccc(-c3ccc4c(c3)CC3(C(=O)NC(=O)NC3=O)C3COCCN43)c(F)c2)C(=O)O1 (stereo partly drawn)	–	–	–	–	–	4 µg/mL	4 µg/mL	32 µg/mL (≈ 58 µM)	4 µg/mL	2 µg/mL (≈ 3.63 µM)	32 µg/mL (≈ 58 µM)
O=C1NC(=O)C2(Cc3cc(-c4ccc(N5C[C@H](CO)OC5=O)cc4F)ccc3C3CCCCC32)C(=O)N1 (stereo partly drawn)	–	–	–	–	–	4 µg/mL	2 µg/mL	32 µg/mL (≈ 63.1 µM)	2 µg/mL	< 1 µg/mL	32 µg/mL (≈ 63.1 µM)
CC(=O)NC[C@H]1CN(c2ccc(-c3ccc4c(c3)CC3(C(=O)NCNC3=O)C3CCCCC43)c(F)c2)C(=O)O1 (stereo partly drawn)	–	–	–	–	–	8 µg/mL	8 µg/mL	> 32 µg/mL	8 µg/mL	4 µg/mL (≈ 7.48 µM)	> 32 µg/mL
O=C1O[C@@H](CO)CN1c1ccc(-c2ccc3c(c2)CC2(C(=O)NCNC2=O)C2CCCCC32)c(F)c1 (stereo partly drawn)	–	–	–	–	–	4 µg/mL	2 µg/mL	32 µg/mL (≈ 64.8 µM)	2 µg/mL	< 1 µg/mL	32 µg/mL (≈ 64.8 µM)
